Reference: patent publication US20220133722A1, “PHARMACEUTICAL COMPOSITIONS” (QUE ONCOLOGY PTY LTD, priority 2019, published 2022)
Where “and” joins values, the source holds several entries; their conditions need not be identical. Equal values may be shown once. Read-outs that look alike come from different tables or passages of the source.

Assay: Part 1 PK study: single oral 200 mg dose, fed (high-fat meal) versus fasted
Format: in vivo, human
Conditions: for Vd/F: read-out: Vz/F
Method: Part 1 involved analysing the PK parameters obtained following single oral administration of 200 mg tablets of a compound of formula (Ia) in free base form to 12 healthy female subjects following either fed (high-fat meal) or fasted conditions.
For Part 1 • Cmax maximum plasma concentration (observed) • Tmax time to reach the maximum plasma concentration (observed) • Clast last observed quantifiable concentration in plasma • Tlast time of last observed quantifiable concentration in plasma • AUC0-last area under the plasma concentration-time curve from time 0 to the time of the last quantifiable concentration • AUCinf area under the plasma concentration-time curve from time 0 to infinite time, calculated as the sum of AUClast and Clast/kel • % AUCexp percent of AUC extrapolated between AUC0-last and AUCinf • kel apparent terminal elimination rate constant • t1/2 elimination half-life associated with the terminal slope (kel) of the semilogarithmic drug concentration-time curve, calculated as 0.693/kel • CL/F apparent total body clearance of a drug from the plasma calculated by: CL/F=Dose/AUCinf • Vz/F apparent volume of distribution at steady state calculated by: V/F=[…]
An initial dose was administered on Day 1 followed by collection of samples for PK analysis for 96 hours. PK blood samples were taken pre-dose and 0.25, 0.5, 1.0, 1.5, 2, 3, 4, 8, 10, 12, 16, 24, 36, 48, 60, 72 and 96 hours post-dose, and urine samples were taken at 0-4, 4-8, 8-12, 12-24 and 24-48 hours. Ten days after the initial dose of study drug (Day 11), a second dose of drug was administered followed by collection of PK samples. Subjects completed the End-of-Study Visit (EOS) on Day 18, 7 days after the last dose of study drug.
Subjects selected for participation checked into the clinical unit and were randomized (on the morning of Day 1) to food state for study treatment; one half received study drug in the fed state first followed by fasted state for the second dose while the other half received study drug in the fasted state first followed by fed state. Prior to dosing on Day 1, all subjects fasted for a minimum of 10 hours overnight. On the morning of Day 1, subjects dosed in the fed state received the study drug within 10 min of completing a high fat breakfast. […] Plasma and urine samples were collected as set out above for the PK analysis. Subjects remained in the clinic for study procedures and blood draws before checking out after completion of study procedures on the morning of Day 4 (i.e., 72 hours post-dose) returning for the final PK blood draw on Day 5 at 96 hr post-dose. After the first single dose of study drug, subjects completed a 10-day washout period, returning to the clinical unit for check-in on Day 10. Subjects fasted overnight, receiving the second dose of study drug in the fed or fasted state on the morning of Day 11. Subjects were discharged from the clinic after the collection of the final 72-hr PK sample returning the next day for the 96 hr blood draw.
For both Parts 1 and 2, samples were processed and analysed as follows. The method extracted Q-122 and the Internal Standard (IS, Q-122 ^13C4) from human plasma using protein precipitation extraction.
The analytes were separated by HPLC on a Phenomenex Synergi Polar-RP column, and the eluates monitored by an API4000 MS/MS detector in positive MRM mode. The extract was then assayed against a calibration curve. The data were acquired and processed by the data acquisition system Analyst® (Sciex) linked directly to the API4000 MS/MS detector and then processed in Watson LIMS™ (Thermo Scientific), where applicable. The method range is from 10.0 to 2500 ng/mL using 50 μL of matrix and has a run time of approximately 3.2 minutes per sample.
Plasma PK parameters for each dosing regimen and dose level were calculated from the concentrations of Q-122 and its major metabolites measured in pre-dose and post-dose plasma samples. […]

[1] = female, human, plasma, po, 200 mg, single oral 200 mg, fasted, mean
[2] = female, human, plasma, po, 200 mg, single oral 200 mg, fasted, median
[3] = female, human, plasma, po, 200 mg, single oral 200 mg, fed (high-fat meal), mean
[4] = female, human, plasma, po, 200 mg, single oral 200 mg, fed (high-fat meal), median
[5] = single dose 200 mg, fed versus fasted
[6] = single oral 200 mg, fasted, individual subjects
[7] = single oral 200 mg, fasted, max
[8] = single oral 200 mg, fasted, mean
[9] = single oral 200 mg, fasted, median
[10] = single oral 200 mg, fasted, min
[11] = single oral 200 mg, fed (high-fat meal), individual subjects
[12] = single oral 200 mg, fed (high-fat meal), max
[13] = single oral 200 mg, fed (high-fat meal), mean
[14] = single oral 200 mg, fed (high-fat meal), median
[15] = single oral 200 mg, fed (high-fat meal), min
[16] = single oral dose 200 mg, healthy subjects

bioavailability with a fatty meal (200 mg, with fatty meal versus fasted): increase in bioavailability
Tmax (female, human, plasma, oral, 200 mg, single dose 200 mg, fasted, subject 101009 omitted, read-out: Tmax (range over subjects)): 0.5 to 2 h
Tmax (female, human, plasma, oral, 200 mg, single dose 200 mg, fasted, read-out: Tmax (range over subjects)): 0.5 to 8 h
Tmax (female, human, plasma, oral, 200 mg, single dose 200 mg, fed, read-out: Tmax (range over subjects)): 0.5 to 10 h
AUC(0-inf) [1]: 7380 ng·h/mL
AUC(0-t) [1]: 6400 ng·h/mL
half-life [1]: 21.4 h
Cmax (female, human, plasma, po, 200 mg, single oral 200 mg, fasted, mean, read-out: Cmax): 620 ng/mL
Tmax (female, human, plasma, po, 200 mg, single oral 200 mg, fasted, mean, read-out: Tmax): 1.75 h
Vd/F [1]: 874 L
AUC(0-inf) [2]: 7390 ng·h/mL
AUC(0-t) [2]: 6330 ng·h/mL
half-life [2]: 23 h
Cmax (female, human, plasma, po, 200 mg, single oral 200 mg, fasted, median, read-out: Cmax): 613 ng/mL
Tmax (female, human, plasma, po, 200 mg, single oral 200 mg, fasted, median, read-out: Tmax): 1.25 h
Vd/F [2]: 798 L
AUC(0-t) [3]: 10200 ng·h/mL
half-life [3]: 12.3 h
Cmax (female, human, plasma, po, 200 mg, single oral 200 mg, fed (high-fat meal), mean, read-out: Cmax): 987 ng/mL
Tmax (female, human, plasma, po, 200 mg, single oral 200 mg, fed (high-fat meal), mean, read-out: Tmax): 6.23 h
Vd/F [3]: 404 L
AUC(0-inf) [4]: 11800 ng·h/mL
AUC(0-t) [4]: 11300 ng·h/mL
half-life [4]: 8.98 h
Cmax (female, human, plasma, po, 200 mg, single oral 200 mg, fed (high-fat meal), median, read-out: Cmax): 929 ng/mL
Tmax (female, human, plasma, po, 200 mg, single oral 200 mg, fed (high-fat meal), median, read-out: Tmax): 8 h
Vd/F [4]: 233 L
increase in mean AUC after food [5]: 1.6 fold
increase in mean Cmax after food [5]: 1.6 fold
Tmax [6]: 1.00 h and 1.50 h and 0.50 h
% AUCexp [7]: 30.9%
AUC0-last [7]: 9258.3 ng·h/mL
AUCinf [7]: 10317.1 ng·h/mL
Cl/F [7]: 48.87 L/h
Clast [7]: 39.70 ng/mL
Cmax [7]: 1050.00 ng/mL
Tlast [7]: 96.00 h
kel [7]: 0.059 h⁻¹
t1/2 [7]: 32.68 h
% AUCexp [8]: 10.23%
Cl/F [8]: 29.137 L/h
Clast [8]: 20.375 ng/mL
Tlast [8]: 67.000 h
kel [8]: 0.0361 h⁻¹
% AUCexp [9]: 9.07%
Cl/F [9]: 27.12 L/h
Clast [9]: 17.00 ng/mL
Tlast [9]: 60.00 h
kel [9]: 0.0302 h⁻¹
% AUCexp [10]: 2.7%
AUC0-last [10]: 3631.6 ng·h/mL
AUCinf [10]: 4092.4 ng·h/mL
Cl/F [10]: 19.39 L/h
Clast [10]: 11.40 ng/mL
Cmax [10]: 103.00 ng/mL
Tlast [10]: 24.00 h
Tmax [10]: 0.50 h
kel [10]: 0.021 h⁻¹
t1/2 [10]: 11.79 h
Tmax [11]: 0.50 h and 10.00 h
% AUCexp [12]: 7.5%
AUC0-last [12]: 14254.9 ng·h/mL
AUCinf [12]: 14389.6 ng·h/mL
Cl/F [12]: 45.22 L/h
Clast [12]: 34.20 ng/mL
Cmax [12]: 1520.00 ng/mL
Tlast [12]: 96.00 h
Tmax [12]: 10.00 h
kel [12]: 0.131 h⁻¹
t1/2 [12]: 29.71 h
% AUCexp [13]: 2.70%
Cl/F [13]: 21.266 L/h
Clast [13]: 16.045 ng/mL
Tlast [13]: 52.364 h
kel [13]: 0.0775 h⁻¹
% AUCexp [14]: 1.64%
Cl/F [14]: 17.00 L/h
Clast [14]: 14.70 ng/mL
Tlast [14]: 48.00 h
kel [14]: 0.0774 h⁻¹
% AUCexp [15]: 0.8%
AUC0-last [15]: 4088.9 ng·h/mL
AUCinf [15]: 4422.3 ng·h/mL
Cl/F [15]: 13.90 L/h
Clast [15]: 10.90 ng/mL
Cmax [15]: 267.00 ng/mL
Tlast [15]: 24.00 h
Tmax [15]: 0.50 h
kel [15]: 0.023 h⁻¹
t1/2 [15]: 5.30 h
increase of mean AUC0-inf by a high-fat meal compared to the fasted state [16]: ~45%
increase of mean Cmax by a high-fat meal compared to the fasted state [16]: about 60%
Structure (SMILES): c1cnc(NCc2ccc(CNc3ncccn3)cc2)nc1 [Q-122]
change of Cmax and AUC0-last following food (single dose 200 mg, fed versus fasted, per subject): approximately doubled in 6 out of 11 subjects
% AUCexp [6]: 4.3% and 10.3% and 9.1% (2×) and 2.7% and 13.4% and 12.6% and 11.3% and 30.9% and 5.9% and 3.1%
AUC0-last [6]: 5881.1 ng·h/mL and 9258.3 ng·h/mL and 7702.0 ng·h/mL and 8375.7 ng·h/mL and 4924.9 ng·h/mL and 5410.8 ng·h/mL and 6774.9 ng·h/mL and 3631.6 ng·h/mL and 5150.3 ng·h/mL and 9154.4 ng·h/mL and 6812.7 ng·h/mL and 3704.2 ng·h/mL
AUCinf [6]: 6144.8 ng·h/mL and 10317.1 ng·h/mL and 8470.5 ng·h/mL and 8608.7 ng·h/mL and 5415.4 ng·h/mL and 6250.2 ng·h/mL and 7756.0 ng·h/mL and 4092.4 ng·h/mL and 9726.1 ng·h/mL and 7031.1 ng·h/mL
Cl/F [6]: 32.55 L/h and 19.39 L/h and 23.61 L/h and 23.23 L/h and 36.93 L/h and 32.00 L/h and 25.79 L/h and 48.87 L/h and 20.56 L/h and 28.45 L/h
Clast [6]: 15.50 ng/mL and 26.40 ng/mL and 16.30 ng/mL (2×) and 11.70 ng/mL and 14.20 ng/mL and 22.40 ng/mL and 30.90 ng/mL and 17.70 ng/mL and 39.70 ng/mL and 11.40 ng/mL and 22.00 ng/mL
Cmax [6]: 611.00 ng/mL and 801.00 ng/mL and 676.00 ng/mL and 1010.00 ng/mL and 103.00 ng/mL and 516.00 ng/mL and 668.00 ng/mL and 403.00 ng/mL and 559.00 ng/mL and 1050.00 ng/mL and 615.00 ng/mL and 422.00 ng/mL
Tlast [6]: 48.00 h and 96.00 h (3×) and 60.00 h (5×) and 72.00 h (2×) and 24.00 h
kel [6]: 0.059 1/h and 0.025 1/h and 0.021 1/h and 0.050 1/h and 0.029 1/h (2×) and 0.027 1/h and 0.031 1/h and 0.038 1/h and 0.052 1/h
t1/2 [6]: 11.79 h and 27.80 h and 32.68 h and 13.80 h and 23.94 h and 25.98 h and 22.01 h and 18.04 h and 24.31 h and 13.28 h
% AUCexp [11]: 0.8% and 4.7% and 7.5% and 2.0% and 1.3% and 5.9% and 1.6% (2×) and 1.7% and 0.9% and 1.5%
AUC0-last [11]: 11087.2 ng·h/mL and 12782.0 ng·h/mL and 4088.9 ng·h/mL and 8498.9 ng·h/mL and 12043.9 ng·h/mL and 7713.8 ng·h/mL and 11821.5 ng·h/mL and 12551.6 ng·h/mL and 14254.9 ng·h/mL and 6505.3 ng·h/mL
AUCinf [11]: 11171.4 ng·h/mL and 13417.1 ng·h/mL and 4422.3 ng·h/mL and 12197.9 ng·h/mL and 8201.3 ng·h/mL and 11516.0 ng·h/mL and 12030.1 ng·h/mL and 12760.3 ng·h/mL and 14389.6 ng·h/mL and 6606.2 ng·h/mL
Cl/F [11]: 17.90 L/h and 14.91 L/h and 45.22 L/h and 16.40 L/h and 24.39 L/h and 17.37 L/h and 16.62 L/h and 15.67 L/h and 13.90 L/h and 30.27 L/h
Clast [11]: 11.00 ng/mL and 14.70 ng/mL and 11.20 ng/mL and 34.20 ng/mL and 15.10 ng/mL and 16.70 ng/mL and 21.50 ng/mL and 15.40 ng/mL and 13.60 ng/mL and 10.90 ng/mL and 12.20 ng/mL
Cmax [11]: 1520.00 ng/mL and 1180.00 ng/mL and 267.00 ng/mL and 797.00 ng/mL and 603.00 ng/mL and 1400.00 ng/mL and 914.00 ng/mL and 1240.00 ng/mL and 1230.00 ng/mL and 779.00 ng/mL
Tlast [11]: 36.00 h (3×) and 96.00 h (2×) and 24.00 h and 48.00 h (4×) and 60.00 h
kel [11]: 0.131 1/h and 0.023 1/h and 0.034 1/h (2×) and 0.098 1/h and 0.114 1/h and 0.074 1/h and 0.065 1/h and 0.081 1/h and 0.121 1/h
t1/2 [11]: 5.30 h and 29.71 h and 20.63 h and 7.07 h and 20.23 h and 6.08 h and 9.39 h and 10.63 h and 8.57 h and 5.73 h
